Source: ChEMBL document CHEMBL5113398, “Design and synthesis of new quinoline derivatives as selective C-RAF kinase inhibitors with potent anticancer activity” (Eur J Med Chem, 2022)
Blank lines part the entries; values can stand above or below the compound they belong to.

Experiments:
SNB-75 = assay: Anticancer activity against human SNB-75 cells assessed as cell growth inhibition incubated for 48 hrs by SRB assay; type: functional
OVCAR-8 = assay: Anticancer activity against human OVCAR-8 cells assessed as cell growth inhibition incubated for 48 hrs by SRB assay; type: functional
M14 = assay: Anticancer activity against human M14 cells assessed as cell growth inhibition incubated for 48 hrs by SRB assay; type: functional
PC-3 [1] = assay: Anticancer activity against human PC-3 cells assessed as cell growth inhibition incubated for 48 hrs by SRB assay; type: functional
Malme-3M [2] = assay: Anticancer activity against human Malme-3M cells assessed as total cell growth inhibition incubated for 48 hrs by SRB assay; type: functional
SF-268 = assay: Anticancer activity against human SF-268 cells assessed as cell growth inhibition incubated for 48 hrs by SRB assay; type: functional
ACHN = assay: Anticancer activity against human ACHN cells assessed as total cell growth inhibition incubated for 48 hrs by SRB assay; type: functional
OVCAR-3 = assay: Anticancer activity against human OVCAR-3 cells assessed as total cell growth inhibition incubated for 48 hrs by SRB assay; type: functional
[3] = Cytotoxicity against human WI-38 cells assessed as cell growth inhibition incubated for 48 hrs by SRB assay; type: toxicity, cell-based
MDA-MB-468 [4] = assay: Anticancer activity against human MDA-MB-468 cells assessed as cell growth inhibition incubated for 48 hrs by SRB assay; type: functional
RPMI-8226 = assay: Anticancer activity against human RPMI-8226 cells assessed as cell growth inhibition incubated for 48 hrs by SRB assay; type: functional
A498 [5] = assay: Anticancer activity against human A498 cells assessed as total cell growth inhibition incubated for 48 hrs by SRB assay; type: functional
PC-3 [6] = assay: Anticancer activity against human PC-3 cells assessed as total cell growth inhibition incubated for 48 hrs by SRB assay; type: functional
SK-MEL-5 = assay: Anticancer activity against human SK-MEL-5 cells assessed as cell growth inhibition incubated for 48 hrs by SRB assay; type: functional
[7] = biological target: Epidermal growth factor receptor (Homo sapiens) (UniProt P00533); assay: Inhibition of EGFR (unknown origin) at 1 uM in presence of ATP by hotspot kinase assay
A498 [8] = assay: Anticancer activity against human A498 cells assessed as cell growth inhibition incubated for 48 hrs by SRB assay; type: functional
SF-295 [9] = assay: Anticancer activity against human SF-295 cells assessed as total cell growth inhibition incubated for 48 hrs by SRB assay; type: functional
HCT-116 = assay: Anticancer activity against human HCT-116 cells assessed as total cell growth inhibition incubated for 48 hrs by SRB assay; type: functional
HL-60 = assay: Anticancer activity against human HL-60 cells assessed as cell growth inhibition incubated for 48 hrs by SRB assay; type: functional
Hs-578T = assay: Anticancer activity against human Hs-578T cells assessed as cell growth inhibition incubated for 48 hrs by SRB assay; type: functional
[10] = biological target: Hepatocyte growth factor receptor (Homo sapiens) (UniProt P08581); assay: Inhibition of MET (unknown origin) at 1 uM in presence of ATP by hotspot kinase assay
HCT-15 = assay: Anticancer activity against human HCT-15 cells assessed as cell growth inhibition incubated for 48 hrs by SRB assay; type: functional
NCI-H23 = assay: Anticancer activity against human NCI-H23 cells assessed as cell growth inhibition incubated for 48 hrs by SRB assay; type: functional
NCI/ADR-RES = assay: Anticancer activity against human NCI/ADR-RES cells assessed as cell growth inhibition incubated for 48 hrs by SRB assay; type: functional
MOLT-4 = assay: Anticancer activity against human MOLT-4 cells assessed as cell growth inhibition incubated for 48 hrs by SRB assay; type: functional
NCI-H522 = assay: Anticancer activity against human NCI-H522 cells assessed as total cell growth inhibition incubated for 48 hrs by SRB assay; type: functional
A549 [11] = assay: Anticancer activity against human A549 cells assessed as total cell growth inhibition incubated for 48 hrs by SRB assay; type: functional
[12] = biological target: Serine/threonine-protein kinase B-raf (Homo sapiens) (UniProt P15056); assay: Inhibition of wild type B-RAF (unknown origin) at 1 uM in presence of ATP by hotspot kinase assay
EKVX = assay: Anticancer activity against human EKVX cells assessed as cell growth inhibition incubated for 48 hrs by SRB assay; type: functional
Malme-3M [13] = assay: Anticancer activity against human Malme-3M cells assessed as cell growth inhibition incubated for 48 hrs by SRB assay; type: functional
OVCAR-4 = assay: Anticancer activity against human OVCAR-4 cells assessed as total cell growth inhibition incubated for 48 hrs by SRB assay; type: functional
UACC-62 = assay: Anticancer activity against human UACC-62 cells assessed as cell growth inhibition incubated for 48 hrs by SRB assay; type: functional
SNB-19 = assay: Anticancer activity against human SNB-19 cells assessed as cell growth inhibition incubated for 48 hrs by SRB assay; type: functional
SK-MEL-28 = assay: Anticancer activity against human SK-MEL-28 cells assessed as cell growth inhibition incubated for 48 hrs by SRB assay; type: functional
U-251 = assay: Anticancer activity against human U-251 cells assessed as total cell growth inhibition incubated for 48 hrs by SRB assay; type: functional
NCI-H460 = assay: Anticancer activity against human NCI-H460 cells assessed as total cell growth inhibition incubated for 48 hrs by SRB assay; type: functional
SF-539 = assay: Anticancer activity against human SF-539 cells assessed as cell growth inhibition incubated for 48 hrs by SRB assay; type: functional
SF-295 [14] = assay: Anticancer activity against human SF-295 cells assessed as cell growth inhibition incubated for 48 hrs by SRB assay; type: functional
NCI-H226 = assay: Anticancer activity against human NCI-H226 cells assessed as total cell growth inhibition incubated for 48 hrs by SRB assay; type: functional
T47D [15] = assay: Anticancer activity against human T47D cells assessed as total cell growth inhibition incubated for 48 hrs by SRB assay; type: functional
OVCAR-5 = assay: Anticancer activity against human OVCAR-5 cells assessed as cell growth inhibition incubated for 48 hrs by SRB assay; type: functional
SW-620 = assay: Anticancer activity against human SW-620 cells assessed as cell growth inhibition incubated for 48 hrs by SRB assay; type: functional
MDA-MB-468 [16] = assay: Anticancer activity against human MDA-MB-468 cells assessed as total cell growth inhibition incubated for 48 hrs by SRB assay; type: functional
A549 [17] = assay: Anticancer activity against human A549 cells assessed as cell growth inhibition incubated for 48 hrs by SRB assay; type: functional
COLO 205 = assay: Anticancer activity against human COLO 205 cells assessed as total cell growth inhibition incubated for 48 hrs by SRB assay; type: functional
T47D [18] = assay: Anticancer activity against human T47D cells assessed as cell growth inhibition incubated for 48 hrs by SRB assay; type: functional
HT-29 = assay: Anticancer activity against human HT-29 cells assessed as cell growth inhibition incubated for 48 hrs by SRB assay; type: functional
UACC-257 = assay: Anticancer activity against human UACC-257 cells assessed as total cell growth inhibition incubated for 48 hrs by SRB assay; type: functional
HOP-62 = assay: Anticancer activity against human HOP-62 cells assessed as total cell growth inhibition incubated for 48 hrs by SRB assay; type: functional

Chain of Epidermal growth factor receptor (Homo sapiens) (P00533 whole entry): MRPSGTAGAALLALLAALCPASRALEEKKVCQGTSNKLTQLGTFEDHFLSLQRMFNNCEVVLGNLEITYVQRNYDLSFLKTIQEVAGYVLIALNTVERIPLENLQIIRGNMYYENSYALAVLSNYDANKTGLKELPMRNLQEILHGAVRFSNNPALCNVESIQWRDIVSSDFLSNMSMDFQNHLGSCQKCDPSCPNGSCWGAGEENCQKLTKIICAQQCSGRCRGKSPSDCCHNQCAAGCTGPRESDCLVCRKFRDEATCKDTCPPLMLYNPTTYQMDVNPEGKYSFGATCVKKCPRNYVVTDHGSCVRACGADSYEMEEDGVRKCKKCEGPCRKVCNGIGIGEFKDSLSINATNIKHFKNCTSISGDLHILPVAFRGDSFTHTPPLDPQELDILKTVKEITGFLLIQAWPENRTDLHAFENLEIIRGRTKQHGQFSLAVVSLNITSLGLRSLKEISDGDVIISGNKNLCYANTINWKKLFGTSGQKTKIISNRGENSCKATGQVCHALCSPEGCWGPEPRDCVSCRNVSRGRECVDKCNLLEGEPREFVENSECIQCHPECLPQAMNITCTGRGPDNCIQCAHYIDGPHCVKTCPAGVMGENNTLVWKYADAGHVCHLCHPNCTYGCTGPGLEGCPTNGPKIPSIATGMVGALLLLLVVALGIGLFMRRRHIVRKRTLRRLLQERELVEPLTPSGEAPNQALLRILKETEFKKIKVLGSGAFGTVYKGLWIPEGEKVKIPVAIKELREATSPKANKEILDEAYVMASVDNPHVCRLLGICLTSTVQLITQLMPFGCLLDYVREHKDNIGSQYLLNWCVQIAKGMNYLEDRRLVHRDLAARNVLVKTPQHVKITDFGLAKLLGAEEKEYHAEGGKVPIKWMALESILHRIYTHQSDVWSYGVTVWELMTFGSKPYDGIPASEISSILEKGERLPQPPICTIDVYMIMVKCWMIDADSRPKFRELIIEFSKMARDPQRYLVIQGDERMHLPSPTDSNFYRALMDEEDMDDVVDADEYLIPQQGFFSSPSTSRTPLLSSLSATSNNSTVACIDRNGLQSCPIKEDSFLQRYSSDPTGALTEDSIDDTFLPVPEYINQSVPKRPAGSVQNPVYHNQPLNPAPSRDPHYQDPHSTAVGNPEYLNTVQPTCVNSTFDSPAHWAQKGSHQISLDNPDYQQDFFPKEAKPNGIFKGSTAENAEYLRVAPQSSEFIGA
Chain of Hepatocyte growth factor receptor (Homo sapiens) (P08581 whole entry): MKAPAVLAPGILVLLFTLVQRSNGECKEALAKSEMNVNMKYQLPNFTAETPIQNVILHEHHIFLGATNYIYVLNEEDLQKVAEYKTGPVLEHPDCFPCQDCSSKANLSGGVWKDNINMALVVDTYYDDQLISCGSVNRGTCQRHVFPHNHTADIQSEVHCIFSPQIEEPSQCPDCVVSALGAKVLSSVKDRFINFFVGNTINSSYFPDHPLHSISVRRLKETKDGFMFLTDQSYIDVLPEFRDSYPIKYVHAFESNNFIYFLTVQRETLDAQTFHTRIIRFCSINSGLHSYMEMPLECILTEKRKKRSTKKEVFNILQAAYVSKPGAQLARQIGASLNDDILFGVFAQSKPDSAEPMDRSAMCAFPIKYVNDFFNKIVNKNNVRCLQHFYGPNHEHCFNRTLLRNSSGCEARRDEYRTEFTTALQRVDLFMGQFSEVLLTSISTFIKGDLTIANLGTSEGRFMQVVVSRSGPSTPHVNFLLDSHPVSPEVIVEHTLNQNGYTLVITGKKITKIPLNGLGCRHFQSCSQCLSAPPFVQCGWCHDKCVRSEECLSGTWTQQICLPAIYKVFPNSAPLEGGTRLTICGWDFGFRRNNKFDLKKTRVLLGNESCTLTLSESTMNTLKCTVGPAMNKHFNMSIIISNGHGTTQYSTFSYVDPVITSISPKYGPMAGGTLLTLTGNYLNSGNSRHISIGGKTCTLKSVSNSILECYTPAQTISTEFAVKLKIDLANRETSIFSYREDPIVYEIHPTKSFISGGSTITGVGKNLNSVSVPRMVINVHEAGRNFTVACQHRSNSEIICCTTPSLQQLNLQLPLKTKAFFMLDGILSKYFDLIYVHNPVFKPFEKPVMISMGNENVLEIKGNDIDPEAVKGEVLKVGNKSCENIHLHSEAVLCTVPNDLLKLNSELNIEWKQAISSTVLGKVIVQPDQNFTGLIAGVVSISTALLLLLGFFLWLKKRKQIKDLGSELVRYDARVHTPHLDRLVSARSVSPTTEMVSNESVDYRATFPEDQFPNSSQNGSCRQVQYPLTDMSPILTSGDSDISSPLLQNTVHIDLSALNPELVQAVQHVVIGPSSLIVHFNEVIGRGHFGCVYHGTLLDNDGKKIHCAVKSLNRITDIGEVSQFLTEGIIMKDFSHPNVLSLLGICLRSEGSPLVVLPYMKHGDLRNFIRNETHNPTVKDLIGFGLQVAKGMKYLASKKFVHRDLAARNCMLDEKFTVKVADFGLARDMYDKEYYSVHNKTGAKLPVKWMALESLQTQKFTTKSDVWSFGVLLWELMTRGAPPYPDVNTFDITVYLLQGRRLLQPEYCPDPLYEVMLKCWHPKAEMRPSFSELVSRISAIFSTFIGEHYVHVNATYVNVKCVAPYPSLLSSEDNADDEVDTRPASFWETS
Chain of Serine/threonine-protein kinase B-raf (Homo sapiens) (P15056 whole entry): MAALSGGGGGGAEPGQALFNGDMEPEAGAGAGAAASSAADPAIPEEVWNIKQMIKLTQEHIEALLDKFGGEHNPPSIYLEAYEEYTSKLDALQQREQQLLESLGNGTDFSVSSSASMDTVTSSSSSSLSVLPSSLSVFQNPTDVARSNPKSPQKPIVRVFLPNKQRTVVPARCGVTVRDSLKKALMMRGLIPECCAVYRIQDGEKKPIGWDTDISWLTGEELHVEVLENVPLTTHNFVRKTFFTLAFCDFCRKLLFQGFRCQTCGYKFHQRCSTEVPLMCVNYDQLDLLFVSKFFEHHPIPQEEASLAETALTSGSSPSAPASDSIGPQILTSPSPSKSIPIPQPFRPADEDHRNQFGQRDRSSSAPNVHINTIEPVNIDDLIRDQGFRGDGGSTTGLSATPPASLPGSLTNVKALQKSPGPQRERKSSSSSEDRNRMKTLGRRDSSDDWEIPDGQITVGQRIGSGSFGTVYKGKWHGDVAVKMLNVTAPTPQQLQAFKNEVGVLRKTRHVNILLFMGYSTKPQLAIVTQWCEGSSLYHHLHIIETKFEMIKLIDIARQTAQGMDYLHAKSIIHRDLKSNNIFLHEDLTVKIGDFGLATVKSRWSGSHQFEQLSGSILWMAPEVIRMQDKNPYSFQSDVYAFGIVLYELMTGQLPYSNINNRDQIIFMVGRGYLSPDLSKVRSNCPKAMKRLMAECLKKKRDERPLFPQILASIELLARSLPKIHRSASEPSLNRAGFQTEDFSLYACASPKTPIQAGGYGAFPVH

GI50 (OVCAR-8): 2670 nM
GI50 (PC-3 [1]): 1360 nM
GI50 (MDA-MB-468 [4]): 470 nM
GI50 (RPMI-8226): 940 nM
GI50 (SK-MEL-5): 1150 nM
inhibition [7]: -2.4%
GI50 (HL-60): 2320 nM
inhibition [10]: 4.3%
GI50 (HCT-15): 3180 nM
GI50 (NCI-H23): 1120 nM
GI50 (MOLT-4): 1480 nM
inhibition [12]: 31.6%
GI50 (SK-MEL-28): 1550 nM
GI50 (OVCAR-5): 4.02 µM
GI50 (SW-620): 5.52 µM
GI50 (A549 [17]): 2130 nM
GI50 (T47D [18]): 1320 nM
GI50 (HT-29): 11.2 µM
Structure (SMILES): COc1cc2cc(Oc3ccc(NC(=O)Nc4ccc(Cl)c(C(F)(F)F)c4)cc3)c(C)nc2cc1OCCN1CCOCC1
GI50 (SNB-75): 1650 nM
GI50 (M14): 1520 nM
TGI (Malme-3M [2]): 3.27 µM
GI50 (SF-268): 2590 nM
TGI (ACHN): 11.6 µM
TGI (OVCAR-3): 3.47 µM
GI50 at 48 h [3]: > 20 µM
TGI (A498 [5]): 9.62 µM
TGI (PC-3 [6]): 6 µM
GI50 (A498 [8]): 2450 nM
TGI (SF-295 [9]): 2850 nM
TGI (HCT-116): 10.8 µM
GI50 (Hs-578T): 1830 nM
GI50 (NCI/ADR-RES): 2340 nM
TGI (NCI-H522): 4.07 µM
TGI (A549 [11]): > 100 µM
GI50 (EKVX): 2070 nM
GI50 (Malme-3M [13]): 1520 nM
TGI (OVCAR-4): 3.41 µM
GI50 (UACC-62): 1360 nM
GI50 (SNB-19): 3.23 µM
TGI (U-251): 3.9 µM
TGI (NCI-H460): 3.62 µM
GI50 (SF-539): 1680 nM
GI50 (SF-295 [14]): 1190 nM
TGI (NCI-H226): 5.91 µM
TGI (T47D [15]): 5.2 µM
TGI (MDA-MB-468 [16]): 2.06 µM
TGI (COLO 205): 3.78 µM
TGI (UACC-257): 4.55 µM
TGI (HOP-62): 4.55 µM

GI50 (OVCAR-8): 1670 nM
GI50 (PC-3 [1]): 1180 nM
GI50 (MDA-MB-468 [4]): 1220 nM
GI50 (RPMI-8226): 840 nM
GI50 (SK-MEL-5): 890 nM
inhibition [7]: 3.62%
GI50 (HL-60): 1620 nM
inhibition [10]: 1.04%
GI50 (HCT-15): 1100 nM
GI50 (NCI-H23): 1660 nM
GI50 (MOLT-4): 1320 nM
inhibition [12]: 26.5%
GI50 (SK-MEL-28): 1800 nM
GI50 (OVCAR-5): 2.18 µM
GI50 (SW-620): 1.72 µM
GI50 (A549 [17]): 1720 nM
GI50 (T47D [18]): 2040 nM
GI50 (HT-29): 1.75 µM
Structure (SMILES): COc1cc2cc(Oc3ccc(NC(=O)Nc4cc(C(F)(F)F)cc(C(F)(F)F)c4)cc3)c(C)nc2cc1OCCN1CCOCC1
GI50 (SNB-75): 1020 nM
GI50 (M14): 1510 nM
TGI (Malme-3M [2]): 3.79 µM
GI50 (SF-268): 1980 nM
TGI (ACHN): 5.42 µM
TGI (OVCAR-3): 5.28 µM
GI50 at 48 h [3]: > 20 µM
TGI (A498 [5]): 6.69 µM
TGI (PC-3 [6]): 5.16 µM
GI50 (A498 [8]): 1800 nM
TGI (SF-295 [9]): 2920 nM
TGI (HCT-116): 5.33 µM
GI50 (Hs-578T): 1560 nM
GI50 (NCI/ADR-RES): 1590 nM
TGI (NCI-H522): 7.29 µM
TGI (A549 [11]): 7.23 µM
GI50 (EKVX): 1640 nM
GI50 (Malme-3M [13]): 1200 nM
TGI (OVCAR-4): 6.95 µM
GI50 (UACC-62): 1670 nM
GI50 (SNB-19): 1.88 µM
TGI (U-251): 2.85 µM
TGI (NCI-H460): 5.52 µM
GI50 (SF-539): 1540 nM
GI50 (SF-295 [14]): 1140 nM
TGI (NCI-H226): 6.53 µM
TGI (T47D [15]): 10.2 µM
TGI (MDA-MB-468 [16]): 3.76 µM
TGI (COLO 205): 2.18 µM
TGI (UACC-257): 4.24 µM
TGI (HOP-62): 9.16 µM

GI50 (OVCAR-8): 2730 nM
GI50 (PC-3 [1]): 1440 nM
GI50 (MDA-MB-468 [4]): 450 nM
GI50 (RPMI-8226): 1120 nM
GI50 (SK-MEL-5): 1140 nM
inhibition [7]: 1.43%
GI50 (HL-60): 2380 nM
inhibition [10]: 3.05%
GI50 (HCT-15): 1730 nM
GI50 (NCI-H23): 1430 nM
GI50 (MOLT-4): 1860 nM
inhibition [12]: 23.7%
GI50 (SK-MEL-28): 1620 nM
GI50 (OVCAR-5): 5.11 µM
GI50 (SW-620): 3.34 µM
GI50 (A549 [17]): 2570 nM
GI50 (T47D [18]): 1910 nM
GI50 (HT-29): 3.07 µM
Structure (SMILES): COc1cc2cc(Oc3ccc(NC(=O)Nc4ccc(F)c(C(F)(F)F)c4)cc3)c(C)nc2cc1OCCN1CCOCC1
GI50 (SNB-75): 1960 nM
GI50 (M14): 1530 nM
TGI (Malme-3M [2]): 3.24 µM
GI50 (SF-268): 3660 nM
TGI (ACHN): 11.4 µM
TGI (OVCAR-3): 13.6 µM
GI50 at 48 h [3]: > 20 µM
TGI (A498 [5]): 10.2 µM
TGI (PC-3 [6]): 10.1 µM
GI50 (A498 [8]): 2800 nM
TGI (SF-295 [9]): 4220 nM
TGI (HCT-116): 11.2 µM
GI50 (Hs-578T): 2120 nM
GI50 (NCI/ADR-RES): 2560 nM
TGI (NCI-H522): 9.43 µM
TGI (A549 [11]): 34.3 µM
GI50 (EKVX): 2530 nM
GI50 (Malme-3M [13]): 1570 nM
TGI (OVCAR-4): 5.23 µM
GI50 (UACC-62): 1360 nM
GI50 (SNB-19): 3.96 µM
TGI (U-251): 11.1 µM
TGI (NCI-H460): 5.34 µM
GI50 (SF-539): 1770 nM
GI50 (SF-295 [14]): 1350 nM
TGI (NCI-H226): 13.2 µM
TGI (T47D [15]): 32.1 µM
TGI (MDA-MB-468 [16]): 10.4 µM
TGI (COLO 205): 4.28 µM
TGI (UACC-257): 5.18 µM
TGI (HOP-62): 20.5 µM
